Experimental data as given in patent publication US7220775B2, “Compound useful for the treatment of neuropathic pain” (H. Lundbeck A/S, priority 2002, dated 2007).

Tests used:
[1] = molecular target: NE transporter (rNE Uptk) (Rattus norvegicus, UniProt Q9WTR4); test: Binding at native NE transporter; conditions: Table 7, native transporter
Description: (§1) The binding properties of the compounds of the present invention were evaluated at one or more cloned receptors or native, tissue-derived transporters, using protocols described below.
(§2) The methods to determine binding affinity at native transporters are described in the following publications: 5HT transporter and NE transporter (Owens et al., 1997), and DA transporter (Javitch et al, 1984).

[2] = tested on: NE transporter (rNE Uptk); test: Binding at native NE transporter; set-up: species or system rat; conditions: Table 8
Description: as §1, §2

human GAL1 receptor = molecular target: T1, human GAL1 receptor (Homo sapiens, UniProt P47211); test: Radioligand binding at cloned human GAL1 receptor; conditions: Table 2, pyrimidines, read-out: Ki (nM) GalR1
T1 construct: expressed in transfected cells
T1 sequence (P47211 1-349): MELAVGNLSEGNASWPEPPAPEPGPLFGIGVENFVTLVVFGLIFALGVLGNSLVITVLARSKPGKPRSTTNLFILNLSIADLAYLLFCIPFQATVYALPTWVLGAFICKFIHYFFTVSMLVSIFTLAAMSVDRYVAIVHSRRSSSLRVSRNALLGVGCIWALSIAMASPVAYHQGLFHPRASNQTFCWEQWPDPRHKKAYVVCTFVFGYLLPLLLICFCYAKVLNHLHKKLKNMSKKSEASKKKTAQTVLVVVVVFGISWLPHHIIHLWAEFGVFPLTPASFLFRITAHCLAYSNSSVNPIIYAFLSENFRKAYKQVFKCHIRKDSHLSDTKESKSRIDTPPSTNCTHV
Description: (§3) The present invention provides for a method of determining the binding affinity of a GAL3 antagonist, wherein the GAL3 antagonist is dissolved in a “suitable solvent”. A “suitable solvent” means one which permits the measurement of binding affinity of the GAL3 antagonist to the human GAL3 receptor at concentrations less than 1 μM, preferably less than 100 nM. Examples of solvents include, but are not limited to, DMSO, ethanol, N,N-dimethylacetamide, or water. For indolones, the preferred solvent is 3% DMSO (final concentration in the assay). For pyrimidines, the preferred solvent is 1% ethanol/0.09% polypuronic acid F-127 (final concentration in the assay). For any other type of compounds, the preferred solvent is the solvent which permits the measurement of binding affinity of a GAL3 antagonist at the lowest concentration. Once a suitable solvent is ascertained for the binding assay of the human GAL3 receptor, the same solvent is used in assays to determine the binding affinity for instance, at the GAL1 receptor.
(§4) LM(tk−) cells were stably transfected with the human GAL1 or GAL3 receptor. CHO cells were stably transfected with the human GAL2 receptor.
(§5) cDNAs for the human and rat GAL1, and human and rat GAL3 receptors were transfected with a G-418 resistant gene into the mouse fibroblast LM(tk−) cell line by a calcium phosphate transfection method (Cullen, 1987). Stably transfected cells were selected with G-418. Human and rat GAL2 receptors were similarly transfected into CHO cells.
Membranes were harvested from stably transfected LM(tk−) cells. Adherent cells were washed twice in ice-cold phosphate buffered saline (138 mM NaCl, 8.1 mM Na2HPO4, […] KCl, 1.2 mM KH2PO4, 0.9 mM CaCl2, 0.5 mM MgCl2, pH 7.4) and lysed by sonication in ice-cold sonication buffer (20 mM Tris-HCl, 5 mM EDTA, pH 7.7). Large particles and debris were cleared by low speed centrifugation (200×g, 5 min, 4° C.). Membranes were collected from the supernatant fraction by centrifugation (32,000×g, 18 min, 4° C.), washed with ice-cold hypotonic buffer, and collected again by centrifugation (32,000×g, 18 min, 4° C.). The final membrane pellet was resuspended by sonication into a small volume of ice-cold binding buffer (˜1 ml for every 5 plates: 10 mM NaCl, […] HEPES, 0.22 mM KH2PO4, 1.26 mM Cal2, 0.81 mM MgSO4, pH 7.4). Protein concentration was measured by the Bradford method (Bradford, 1976) using Pio-Rad Reagent, with bovine serum albumin as a standard. Membranes were held on ice for up to one hour and used fresh, or flash frozen and stored in liquid nitrogen. Membranes were prepared similarly from CHO cells. […]
(§6) Binding data were analyzed using nonlinear regression and statistical techniques available in the GraphPAD Prism package (San, Diego, Calif.). […]

[3] = tested on: neuropathic rats (chronic constriction nerve injury); test: Chronic constriction nerve injury model of neuropathic pain: thermal hyperalgesia (Thermal Plantar Test); format: in vivo, rat; conditions: 10 mg/kg i.p.
Description: (§7) The aim of this study was to assess the potential analgesic effects of Example 92 following intraperitoneal administration at the doses of 3, 10 and 30 mg/kg, respectively, in an animal model of neuropathic pain. A peripheral mononeuropathy was induced in the right hind limb of rats following a chronic constriction nerve injury (Bennett and Xie, 1988), and the development of mechanical allodynia and thermal hyperalgesia was monitored using established behavioral tests (Attal, N., et al., 1990; Hargreaves, K., et al., 1988).
(§8) Male Sprague-Dawley rats within the weight range of 200-225 g, and approximate age 7-9 weeks, were allowed to acclimate for a minimum of 6 days prior to the start of the behavioral testing.
(§9) All rats underwent a chronic constriction nerve injury, and of these, those that successfully developed allodynia and hyperalgesia were allocated to treatment groups.
(§10) There were 5 separate treatment groups (with a minimum of 10 rats per group). The treatment groups were as follows: • Group C received Morphine at 10 mg/kg (n=10) • Group D received Vehicle for Example 92* at 1 ml/kg (n=10) (* 100% DMSO) • Group E received Example 92 at 30 mg/kg (n=10) • Group F received Example 92 at 3 mg/kg (n=10) • Group G received Example 92 at 10 mg/kg (n=10)
(§11) The dose volume for all treatments was 1 ml/kg. Each rat received a single i.p. dose of the test substance, reference substance or vehicle on Day 12 PO. Test substance and vehicle dosing solutions were encoded (C-G) so that the observers were unaware of the identity of the treatment groups.
(§12) The behavioral tests (Von Frey filament and Thermal Plantar Tests—see below) were performed on all rats on 3 separate days prior to […], to establish baseline values. The pre-surgery baseline values were calculated as the mean of the last 2 days testing (the data from the first day of testing were not included as this was classed as part of the acclimating period). The sequence of tests was always mechanical allodynia (Von Frey Test) followed by thermal hyperalgesia (Thermal Plantar Test), with a minimum 5 min period allowed between the 2 tests.
Each rat was placed in a clear plastic chamber with a glass floor and allowed a short period to acclimatize to the new environment (approximately 5 min.). The animals were then challenged with a radiant Infrared (IR) heat source, directed at the plantar surface of the hind paw from below, and the withdrawal latency of both the ipsilateral and contralateral hind paws was evaluated. The infrared intensity was set at IR50 and the maximum length of exposure to the IR source was 18 s. Non-responding animals were allocated a withdrawal latency of 18 s.
The animals were surgically prepared over 5 days. […]

[4] = tested on: neuropathic rats (chronic constriction nerve injury); test: Chronic constriction nerve injury model of neuropathic pain: mechanical allodynia (Von Frey filaments); format: in vivo, rat; conditions: 10 mg/kg i.p.
Description: as §7, §8, §9, §10, §11, §12
Each animal was placed in a wire mesh cage and a series of Von Frey filaments (ranging from filament handle number 3.61 to 6.10) applied to the plantar surface of the hind paw, from below. The filaments were applied in ascending order (starting with the weakest force) and the withdrawal threshold for both the ipsilateral and contralateral hind paws was evaluated. Each filament was indented on the plantar surface of the foot to the point where it just started to bend, and this was repeated approximately 8-10 times per filament at a frequency of approximately 1 Hz. The withdrawal threshold was defined as the lowest force of two or more consecutive Von Frey filaments to elicit a reflex withdrawal response.
The animals were surgically prepared over 5 days. Each rat was anaesthetized with sodium pentobarbitone (60 mg/ml; 0.6 ml/kg dose, intraperitonealy; batch number 00230; expiry date 22 May 3) and then supplemented as necessary with isoflurane (1-3% in oxygen). The surface around the incision site was shaved and then sterilized with surgical spirit. Under aseptic conditions the right sciatic nerve was exposed by blunt dissection at mid-thigh level and approximately 1 cm of nerve was freed of adhering connective tissue. Four chromic cat gut (4.0) ligatures, spaced at approximately 1 mm inzervals, were then tied so as to barely constrict the nerve (as viewed under 40× magnification) to induce a peripheral mononeuropathy in the right hind limb. The overlying muscle and skin were then closed in layers using suture material, and the anesthesia discontinued. On recovery from anesthesia, the rats were re-housed with their cage mates on soft padded bedding overnight (to reduce the risk of infection) and subsequently on sawdust bedding following full recovery. The animals were allowed 4 full days to recover before the behavioral testing was recommenced. […]

human GAL2 receptor = molecular target: T2, human GAL2 receptor (Homo sapiens, UniProt O43603); test: Radioligand binding at cloned human GAL2 receptor; conditions: Table 2, pyrimidines, read-out: Ki (nM) GalR2
T2 construct: expressed in transfected cells
T2 sequence (O43603 1-387): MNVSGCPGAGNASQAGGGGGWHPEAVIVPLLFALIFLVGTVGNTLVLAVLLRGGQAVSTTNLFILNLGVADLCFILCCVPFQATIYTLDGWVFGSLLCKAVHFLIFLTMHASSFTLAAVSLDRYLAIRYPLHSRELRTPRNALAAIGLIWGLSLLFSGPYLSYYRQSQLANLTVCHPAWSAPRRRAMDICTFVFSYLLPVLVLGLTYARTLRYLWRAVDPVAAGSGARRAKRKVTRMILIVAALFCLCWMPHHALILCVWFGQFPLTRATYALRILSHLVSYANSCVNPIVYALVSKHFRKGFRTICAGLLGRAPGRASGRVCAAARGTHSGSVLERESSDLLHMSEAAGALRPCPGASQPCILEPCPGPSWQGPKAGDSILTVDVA
Description: as §3, §4, §5
Membranes were harvested from stably transfected LM(tk−) cells. Adherent cells were washed twice in ice-cold phosphate buffered saline (138 mM NaCl, 8.1 mM Na2HPO4, […] KCl, 1.2 mM KH2PO4, 0.9 mM CaCl2, 0.5 mM MgCl2, pH 7.4) and lysed by sonication in ice-cold sonication buffer (20 mM Tris-HCl, 5 mM EDTA, pH 7.7). […] Protein concentration was measured by the Bradford method (Bradford, 1976) using Pio-Rad Reagent, with bovine serum albumin as a standard. […]
as §6

SMILES	Ki [1] [µM]	selectivity ratio rNE Uptk (Ki rNE Uptk / Ki hGAL3) [2]	also measured
CN(C)c1cc(Nc2ccc(Cl)c(Cl)c2)nc(Nc2ccccc2)n1 [Example 60]	46.1	–	–
Cc1ccc(Nc2cc(N3CCCCC3)nc(N(C)CCc3ccccc3)n2)cc1 [Example 22]	13.1	>100	–
COc1cccc(Nc2cc(N3CCCCC3)nc(N(C)CCc3c[nH]c4ccccc34)n2)c1 [Example 17]	18.3	>100	–
Cc1ccc(Nc2cc(N3CCCCC3)nc(N3CCN(c4ncccc4C(F)(F)F)CC3)n2)cc1 [Example 34]	> 50	>100	–
Cc1ccc(Nc2cc(N(C)C)nc(N(C)CCc3c[nH]c4ccccc34)n2)cc1 [Example 77]	28.1	>100	–
C[C@H]1CC2CC([C@@H]1Nc1cc(N(C)C)nc(Nc3ccccc3)n1)C2(C)C (stereo partly shown) [Example 71]	–	–	Ki (human GAL1 receptor): > 5000 nM
CN(CCc1c[nH]c2ccccc12)c1nc(Nc2ccc(F)c(F)c2)cc(N2CCCCC2)n1 [Example 15]	> 50	>100	–
O=C1C(=Nc2ccc(Br)cc2)c2ccccc2N1c1ccccc1 [Example 98, 3-[(4-BROMOPHENYL)IMINO]-1-PHENYL-1,3-DIHYDRO-2H-INDOL-2-ONE]	5.5	>100	–
CN1CC[C@]23c4c5ccc(O)c4O[C@H]2[C@@H](O)C=C[C@H]3[C@H]1C5 [morphine, reference compound]	–	–	effect on withdrawal latency of the nerve-injured hind paw to the thermal plantar device ([3]; approx. 40 and 100 min PD): significantly increased; withdrawal latency to a noxious heat stimulus, nerve-injured and contralateral hind paws ([3]; up to 100 min PD): significant increase; contralateral paw effects (Von Frey) ([4]; 30 and 90 min): significant contralateral effects; effect on withdrawal threshold of the nerve-injured hind paw (Von Frey) ([4]; up to 90 min PD): significantly increased
Cc1ccccc1Nc1cc(N(C)C)nc(Nc2ccccc2)n1 [Example 51]	–	–	Ki (human GAL1 receptor): > 5000 nM; Ki (human GAL2 receptor): > 5000 nM
O=C1C(=Nc2cccc(Cl)c2)c2ccccc2N1c1ccccc1 [Example 94, 3-[(3-CHLOROPHENYL)IMINO]-1-PHENYL-1,3-DIHYDRO-2H-INDOL-2-ONE]	4.88	>30	–
Cc1ccc(Nc2cc(N3CCCCC3)nc(N(C)CCc3c[nH]c4ccccc34)n2)cc1 [Example 11]	> 50	>100	–
O=C1C(=Nc2ccc(C(F)(F)F)cc2)c2ccccc2N1c1ccccc1 [Example 95, 1-PHENYL-3-[[4-(TRIFLUOROMETHYL)PHENYL]IMINO]-1,3-DIHYDRO-2H-INDOL-2-ONE]	6.1	>100	–
O=C1C(=Nc2ccc(Cl)cc2)c2ccccc2N1c1ccccc1 [Example 97, 3-[(4-CHLOROPHENYL)IMINO]-1-PHENYL-1,3-DIHYDRO-2H-INDOL-2-ONE]	4.41	>30	–
